According to US10906897B2, “Microbiocidal heterobicyclic derivatives” (priority 2015, dated 2021):

How the values were obtained:
[1] = system: Botryotinia fuckeliana (Botrytis cinerea); experiment: Botryotinia fuckeliana (Botrytis cinerea) / liquid culture (Gray mould); type: cell-based; conditions: growth inhibition photometrically 3-4 days after application, compared to untreated control
[2] = system: Glomerella lagenarium (Colletotrichum lagenarium); experiment: Glomerella lagenarium (Colletotrichum lagenarium) / liquid culture (Anthracnose); type: cell-based; conditions: Colletotrichum orbiculare, growth inhibition photometrically 3-4 days after application, compared to untreated control
[3] = system: Monographella nivalis (Microdochium nivale); experiment: Monographella nivalis (Microdochium nivale) / liquid culture (foot rot cereals); type: cell-based; conditions: 96 h, growth inhibition photometrically 4-5 days after application, compared to untreated control
[4] = system: Mycosphaerella graminicola (Septoria tritici); experiment: Mycosphaerella graminicola (Septoria tritici) / liquid culture (Septoria blotch); type: cell-based; conditions: Zymoseptoria tritici, growth inhibition photometrically 4-5 days after application, compared to untreated control
[5] = system: Fusarium culmorum; experiment: microbe, parasite or virus in culture; type: cell-based; conditions: read-out: control of Fusarium culmorum
[6] = system: Magnaporthe grisea (Pyricularia oryzae); experiment: whole plant or invertebrate; type: in vivo; conditions: foliar, read-out: control of Magnaporthe grisea
[7] = system: Magnaporthe grisea (Pyricularia oryzae); experiment: microbe, parasite or virus in culture; type: cell-based; conditions: read-out: control of Magnaporthe grisea
[8] = system: Sclerotinia sclerotiorum; experiment: Sclerotinia sclerotiorum / liquid culture (cottony rot); conditions: read-out: control of Sclerotinia sclerotiorum
Description: Sclerotinia sclerotiorum/Liquid Culture (Cottony Rot)
Mycelia fragments of a newly grown liquid culture of the fungus are directly mixed into 5 nutrient broth (Vogels broth). After placing a (DMSO) solution of test compound into a microtiter plate (96-well format) the nutrient broth containing the fungal material is added. The test plates are incubated at 24° C. and the inhibition of growth is determined photometrically 3-4 days after application.

[9] = system: Gaeumannomyces graminis; experiment: Gaeumannomyces graminis / liquid culture (Take-all of cereals); type: cell-based; conditions: growth inhibition photometrically 4-5 days after application, compared to untreated control

Row | SMILES | inhibition of growth at 20 ppm [1] [%] | inhibition of growth at 20 ppm [2] [%] | inhibition of growth at 20 ppm [3] [%] | inhibition of growth at 20 ppm [4] [%] | inhibition of growth at 20 ppm [5] [%] | pest or weed control at 200 ppm [6] [%] | inhibition of growth at 60 ppm [7] [%] | inhibition of growth at 20 ppm [8] [%] | inhibition of growth at 20 ppm [9] [%] | melting point [°C]
1 | CC1(C)N=C(c2cnc3c(C4CC4)cccn23)c2cccc(F)c2C1(C)C [Compound E-22, 1-(8-cyclopropylimidazo[1,2-a]pyridin-3-yl)-5-fluoro-3,3,4,4-tetramethyl-isoquinoline] | ≥ 80 | ≥ 80 | ≥ 80 | ≥ 80 |  |  |  |  |  | 
2 | Cc1ccc2c(C3=NC(C)(C)C(F)(F)c4cc(F)ccc43)cnn2c1C [Compound E-70, 1-(6,7-dimethylpyrazolo[1,5-a]pyridin-3-yl)-4,4,6-trifluoro-3,3-dimethyl-isoquinoline] | ≥ 80 | ≥ 80 | ≥ 80 |  | ≥ 80 | ≥ 50 | ≥ 80 | ≥ 80 |  | 
3 | Cc1cccn2ncc(C3=NC(C)(C)C(F)(F)c4ccccc43)c12 [Compound E-69, 4,4-difluoro-3,3-dimethyl-1-(4-methylpyrazolo[1,5-a]pyridin-3-yl)isoquinoline] | ≥ 80 | ≥ 80 | ≥ 80 |  | ≥ 80 | ≥ 50 | ≥ 80 | ≥ 80 | ≥ 80 | 113 to 114
4 | Cc1ccc2c(C3=NC(C)(C)C(F)(F)c4ccccc43)cnn2c1C [Compound E-65, 1-(6,7-dimethylpyrazolo[1,5-a]pyridin-3-yl)-4,4-difluoro-3,3-dimethyl-isoquinoline] | ≥ 80 | ≥ 80 | ≥ 80 |  | ≥ 80 |  | ≥ 80 | ≥ 80 | ≥ 80 | 
5 | Cc1ccn2c(C3=NC(C)(C)C(F)(F)c4ccccc43)cnc2c1C [Compound E-57, 1-(7,8-dimethylimidazo[1,2-a]pyridin-3-yl)-4,4-difluoro-3,3-dimethyl-isoquinoline] | ≥ 80 | ≥ 80 | ≥ 80 |  | ≥ 80 | ≥ 50 | ≥ 80 | ≥ 80 |  | 159 to 161
6 | Cc1cccn2c(C3=NC(C)(C)C(F)(F)c4c(F)cccc43)cnc12 [Compound E-39, 4,4,5-trifluoro-3,3-dimethyl-1-(8-methylimidazo[1,2-a]pyridin-3-yl)isoquinoline] | ≥ 80 | ≥ 80 | ≥ 80 | ≥ 80 | ≥ 80 | ≥ 50 |  |  | ≥ 80 | 
7 | Cc1cccc2c(C3=NC(C)(C)C(=O)c4ccccc43)cnn12 [Compound E-67, 3,3-dimethyl-1-(7-methylpyrazolo[1,5-a]pyridin-3-yl)isoquinolin-4-one] | ≥ 80 | ≥ 80 | ≥ 80 |  | ≥ 80 |  | ≥ 80 | ≥ 80 |  | 110 to 112
8 | Cc1cccc2c(C3=NC(C)(C)C(F)(F)c4ccccc43)cnn12 [Compound E-66, 4,4-difluoro-3,3-dimethyl-1-(7-methylpyrazolo[1,5-a]pyridin-3-yl)isoquinoline] | ≥ 80 | ≥ 80 | ≥ 80 |  | ≥ 80 | ≥ 50 | ≥ 80 | ≥ 80 | ≥ 80 | 
9 | CC1(C)N=C(c2cnc3cc(I)ccn23)c2cccc(F)c2C1(C)C [Compound E-44, 5-fluoro-1-(7-iodoimidazo[1,2-a]pyridin-3-yl)-3,3,4,4-tetramethyl-isoquinoline] | ≥ 80 | ≥ 80 | ≥ 80 | ≥ 80 | ≥ 80 |  |  |  |  | 
10 | CC1(C)N=C(c2cnn3cccc(F)c23)c2ccccc2C1(F)F [Compound E-89, 4,4-difluoro-1-(4-fluoropyrazolo[1,5-a]pyridin-3-yl)-3,3-dimethyl-isoquinoline] | ≥ 80 | ≥ 80 | ≥ 80 |  | ≥ 80 |  | ≥ 80 | ≥ 80 |  | 
11 | Cc1cccn2c(C3=NC4(CCC4)Cc4ccccc43)cnc12 [Compound E-52, 1-(8-methylimidazo[1,2-a]pyridin-3-yl)spiro[4H-isoquinoline-3,1′-cyclobutane]] | ≥ 80 | ≥ 80 | ≥ 80 |  |  |  | ≥ 80 | ≥ 80 |  | 
12 | Cc1ccc2c(C3=NC(C)(C)C(=O)c4c(F)cccc43)cnn2c1C [Compound E-72, 1-(6,7-dimethylpyrazolo[1,5-a]pyridin-3-yl)-5-fluoro-3,3-dimethyl-isoquinolin-4-one] | ≥ 80 | ≥ 80 | ≥ 80 |  | ≥ 80 |  | ≥ 80 | ≥ 80 |  | 139 to 141
13 | Cc1ccc2c(C3=NC(C)(C)C(F)(F)c4c(F)cccc43)cnn2c1C [Compound E-71, 1-(6,7-dimethylpyrazolo[1,5-a]pyridin-3-yl)-4,4,5-trifluoro-3,3-dimethyl-isoquinoline] | ≥ 80 | ≥ 80 | ≥ 80 |  | ≥ 80 | ≥ 50 | ≥ 80 | ≥ 80 | ≥ 80 | 
14 | Cc1ccc2c(C3=NC(C)(C)C(=O)c4ccccc43)cnn2c1C [Compound E-64, 1-(6,7-dimethylpyrazolo[1,5-a]pyridin-3-yl)-3,3-dimethyl-isoquinolin-4-one] | ≥ 80 | ≥ 80 | ≥ 80 |  | ≥ 80 |  | ≥ 80 | ≥ 80 | ≥ 80 | 152 to 153
15 | Cc1c(Cl)ccc2c(C3=NC(C)(C)C(F)(F)c4ccccc43)cnn12 [Compound E-91, 1-(6-chloro-7-methyl-pyrazolo[1,5-a]pyridin-3-yl)-4,4-difluoro-3,3-dimethyl-isoquinoline] | ≥ 80 | ≥ 80 | ≥ 80 |  | ≥ 80 | ≥ 50 | ≥ 80 | ≥ 80 | ≥ 80 | 166 to 168
16 | Cc1c(Br)ccc2c(C3=NC(C)(C)C(F)(F)c4ccccc43)cnn12 [Compound E-79, 1-(6-bromo-7-methyl-pyrazolo[1,5-a]pyridin-3-yl)-4,4-difluoro-3,3-dimethyl-isoquinoline] | ≥ 80 | ≥ 80 |  |  | ≥ 80 |  | ≥ 80 | ≥ 80 | ≥ 80 | 180 to 182
